EC50 and IC50 data for 14 compounds are collected here from patent publication US12098148B2, “Therapeutic compounds” (C4X Discovery Limited, priority 2018, dated 2024).

In experiment [1] the test system is NQO1 mRNA in BEAS-2B cells. In words: Beas2B NQO1 mRNA cell based assay. More on the design: species or system human. The following applies: Homo sapiens, BEAS-2B, 24 h, 24 h compound treatment, increase in NQO1 mRNA vs vehicle (0.1% DMSO), read-out: EC50. Summed up: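 BEAS-2B human bronchial epithelial cells exposed to compound for 24 h at 37 °C, 5% CO2. NQO1 mRNA measured by one-step TaqMan RT-qPCR on unpurified lysates, normalized to β-actin; relative expression by ΔΔCT method.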

Experiment [2] addresses human KEAP1 (N-term, residues 321-609) (Homo sapiens, UniProt Q14145). The experiment is described as follows: biochemical.
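Wherever IC50 is given: fluorescence polarization competition assay of Kelch domain binding to NRF2, 12-point 1:3 dilution series from 10 µM, read after 1 h at room temperature, floor 10 nM.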

Sequence of human KEAP1 (N-term, residues 321-609) (Q14145 321-609): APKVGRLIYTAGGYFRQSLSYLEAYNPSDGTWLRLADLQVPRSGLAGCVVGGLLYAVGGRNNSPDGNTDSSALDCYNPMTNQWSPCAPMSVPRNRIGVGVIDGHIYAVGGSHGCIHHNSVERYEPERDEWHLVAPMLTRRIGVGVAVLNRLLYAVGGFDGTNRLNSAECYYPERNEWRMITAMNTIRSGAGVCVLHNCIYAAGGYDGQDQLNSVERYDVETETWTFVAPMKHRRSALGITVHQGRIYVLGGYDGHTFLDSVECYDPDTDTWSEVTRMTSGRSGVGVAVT

The term EC50 denotes the concentration needed to bring the measured effect to its halfway point. In general, IC50 refers to the midpoint of a concentration-inhibition curve. Read a high IC50 as lower potency. For `Cn1nnc(COc2ccc(Cl)c3c2[C@@H](CN2CCCC2=O)N(C(=O)[C@@H]2CCC[C@]2(C)C(=O)O)CC3)c1C(F)F` [Example 102, (1S,2R)-2-((S)-5-chloro-8-((5-(difluoromethyl)-1-methyl-1H-1,2,3-triazol-4-yl)methoxy)-1-((2-oxopyrrolidin-1-yl)methyl)-1,2,3,4-tetrahydroisoquinoline-2-carbonyl)-1-methylcyclopentane-1-carboxylic acid], in experiment [1], the EC50 stood at 1 nM. In addition, inhibition in experiment [2] was half-maximal at 4.8 nM (IC50).

Turning to `Cn1nnc(COc2ccc(Cl)c3c2[C@@H](CN2CC4(CC4)CC2=O)N(C(=O)[C@@H]2C[C@@H](O)CC[C@]2(C)C(=O)O)CC3)c1C(F)F` [Example 220, (1S,2R,4S)-2-((S)-5-chloro-8-((5-(difluoromethyl)-1-methyl-1H-1,2,3-triazol-4-yl)methoxy)-1-((6-oxo-5-azaspiro[2.4]heptan-5-yl)methyl)-1,2,3,4-tetrahydroisoquinoline-2-carbonyl)-4-hydroxy-1-methylcyclohexane-1-carboxylic acid], the EC50 in experiment [1] came to 15 nM. The concentration for half-maximal inhibition (IC50) in experiment [2] came to 7 nM.

Take `Cn1c(COc2ccc(Cl)c3c2[C@@H](CN2CC4(CC4)CC2=O)N(C(=O)[C@@H]2CCCC[C@]2(C)C(=O)O)CC3)nnc1C1CC1` [Example 184, (1S,2R)-2-((S)-5-chloro-8-((5-cyclopropyl-4-methyl-4H-1,2,4-triazol-3-yl)methoxy)-1-((6-oxo-5-azaspiro[2.4]heptan-5-yl)methyl)-1,2,3,4-tetrahydroisoquinoline-2-carbonyl)-1-methylcyclohexane-1-carboxylic acid]: the EC50 in experiment [1] was 5.6 nM. For the same compound, the IC50 in experiment [2] stood at 2.9 nM.

With `Cc1ccc(OCc2cn(C(C)C)nn2)c2c1CCN(C(=O)[C@@H]1CCCC[C@@H]1C(=O)O)[C@@H]2CN1Cc2ccccc2C1=O` [Example 59, (1S,2R)-2-((S)-8-((1-isopropyl-1H-1,2,3-triazol-4-yl)methoxy)-5-methyl-1-((1-oxoisoindolin-2-yl)methyl)-1,2,3,4-tetrahydroisoquinoline-2-carbonyl)cyclohexane-1-carboxylic acid], the EC50 in experiment [1] came to 21 nM. The compound also displayed a half-maximal inhibitory concentration (IC50) in experiment [2] of 11 nM.

As to `C[C@]1(C(=O)O)CCCC[C@H]1C(=O)N1CCc2c(Cl)ccc(OCc3cncnc3C(F)F)c2[C@H]1CN1CC2(CC2)CC1=O` [Example 135, (1S,2R)-2-((S)-5-chloro-8-((4-(difluoromethyl)pyrimidin-5-yl)methoxy)-1-((6-oxo-5-azaspiro[2.4]heptan-5-yl)methyl)-1,2,3,4-tetrahydroisoquinoline-2-carbonyl)-1-methylcyclohexane-1-carboxylic acid], in experiment [1], the concentration giving a half-maximal response (EC50) came out at 0.91 nM. The compound further returned an IC50 in experiment [2] of 5.3 nM.

As to `C[C@@H]1CC(=O)N(C[C@@H]2c3c(OCc4nnn(C)c4C(F)(F)F)ccc(Cl)c3CCN2C(=O)[C@@H]2CCCC[C@]2(C)C(=O)O)C1` [Example 132, (1S,2R)-2-((S)-5-chloro-1-(((R)-4-methyl-2-oxopyrrolidin-1-yl)methyl)-8-((1-methyl-5-(trifluoromethyl)-1H-1,2,3-triazol-4-yl)methoxy)-1,2,3,4-tetrahydroisoquinoline-2-carbonyl)-1-methylcyclohexane-1-carboxylic acid], the EC50 in experiment [1] was 5.7 nM. Moreover, the midpoint of inhibition in experiment [2], the IC50, lay at 5.1 nM.

With `Cn1ncc(COc2ccc(Cl)c3c2[C@@H](CN2CC4(CC4)CC2=O)N(C(=O)[C@@H]2CCCC[C@]2(C)C(=O)O)CC3)n1` [Example 206, (1S,2R)-2-((S)-5-chloro-8-((2-methyl-2H-1,2,3-triazol-4-yl)methoxy)-1-((6-oxo-5-azaspiro[2.4]heptan-5-yl)methyl)-1,2,3,4-tetrahydroisoquinoline-2-carbonyl)-1-methylcyclohexane-1-carboxylic acid], the EC50 in experiment [1] came out at 34 nM. In experiment [2], this compound yielded an IC50 of 6.6 nM.

For `CC(=O)N1CC[C@H](Oc2ccc(Cl)c3c2[C@@H](CN2CC4(CC4)CC2=O)N(C(=O)[C@@H]2CCCC[C@]2(C)C(=O)O)CC3)C1` [Example 188, (1S,2R)-2-((S)-8-(((S)-1-acetylpyrrolidin-3-yl)oxy)-5-chloro-1-((6-oxo-5-azaspiro [2.4]heptan-5-yl)methyl)-1,2,3,4-tetrahydroisoquinoline-2-carbonyl)-1-methylcyclohexane-1-carboxylic acid], the EC50 in experiment [1] was 7.9 nM. The same compound yielded an IC50 in experiment [2] of 4.9 nM.

`Cc1cnc(N2CC[C@H](Oc3ccc(Br)c4c3[C@@H](CN3Cc5ccccc5C3=O)N(C(=O)[C@@H]3CCCC[C@@H]3C(=O)O)CC4)C2)s1` [Example 21, (1S,2R)-2-((S)-5-bromo-8-(((S)-1-(5-methylthiazol-2-yl)pyrrolidin-3-yl)oxy)-1-((1-oxoisoindolin-2-yl)methyl)-1,2,3,4-tetrahydroisoquinoline-2-carbonyl)cyclohexane-1-carboxylic acid]: the 50% effective concentration (EC50) in experiment [1] was 7.9 nM. This compound also came in with a concentration for half-maximal inhibition (IC50) in experiment [2] of 4.7 nM.

For `CN(C)CCn1cc(COc2ccc(Cl)c3c2[C@@H](CN2CC4(CC4)CC2=O)N(C(=O)[C@@H]2CCCC[C@]2(C)C(=O)O)CC3)nn1` [Example 173, (1S,2R)-2-((S)-5-chloro-8-((1-(2-(dimethylamino)ethyl)-1H-1,2,3-triazol-4-yl)methoxy)-1-((6-oxo-5-azaspiro[2.4]heptan-5-yl)methyl)-1,2,3,4-tetrahydroisoquinoline-2-carbonyl)-1-methylcyclohexane-1-carboxylic acid], in experiment [1], the half-maximal effective concentration (EC50) was 35 nM. In addition, inhibition in experiment [2] was half-maximal at 6.5 nM (IC50).

On to `C[C@@H]1CCN(C[C@@H]2c3c(OCc4nnn(C)c4C(F)(F)F)ccc(Cl)c3CCN2C(=O)[C@@H]2CCCC[C@]2(C)C(=O)O)C1=O` [Example 131, (1S,2R)-2-((S)-5-chloro-1-(((R)-3-methyl-2-oxopyrrolidin-1-yl)methyl)-8-((1-methyl-5-(trifluoromethyl)-1H-1,2,3-triazol-4-yl)methoxy)-1,2,3,4-tetrahydroisoquinoline-2-carbonyl)-1-methylcyclohexane-1-carboxylic acid], for which the EC50 in experiment [1] was found to be 200 nM. For the same compound, inhibition in experiment [2] was half-maximal at 12 nM (IC50).

`Cc1ncc(C(=O)N2CC[C@H](Oc3ccc(Br)c4c3[C@@H](CN3Cc5ccccc5C3=O)N(C(=O)[C@@H]3CCCC[C@@H]3C(=O)O)CC4)C2)s1` [Example 20, (1S,2R)-2-((S)-5-Bromo-8-(((S)-1-(2-methylthiazole-5-carbonyl)-pyrrolidin-3-yl)oxy)-1-((1-oxoisoindolin-2-yl)methyl)-1,2,3,4-tetrahydroisoquinoline-2-carbonyl)cyclohexane-1-carboxylic acid]: in experiment [1], the concentration for a half-maximal effect (EC50) is 20 nM. The compound also came in with a half-maximal inhibitory concentration (IC50) in experiment [2] of 5.4 nM.

Consider `Cc1cc(COc2ccc(Cl)c3c2[C@@H](CN2CCCC2=O)N(C(=O)[C@@H]2CCCC[C@@H]2C(=O)O)CC3)ns1` [Example 70, (1S,2R)-2-((S)-5-Chloro-8-((5-methylisothiazol-3-yl)methoxy)-1-((2-oxopyrrolidin-1-yl)methyl)-1,2,3,4-tetrahydroisoquinoline-2-carbonyl) cyclohexane-1-carboxylic acid], for which, in experiment [1], the concentration giving a half-maximal response (EC50) stood at 55 nM. Further, the IC50 in experiment [2] turned out to be 5.9 nM.

Regarding `Cn1cc(COc2ccc(Cl)c3c2[C@@H](CN2CCCC2=O)N(C(=O)[C@@H]2CCCC[C@@H]2C(=O)O)CC3)nn1` [Example 104, (1S,2R)-2-((S)-5-Chloro-8-((1-methyl-1H-1,2,3-triazol-4-yl)methoxy)-1-((2-oxopyrrolidin-1-yl)methyl)-1,2,3,4-tetrahydroisoquinoline-2-carbonyl)cyclohexane-1-carboxylic acid], the EC50 in experiment [1] was determined as 27 nM. In experiment [2], the IC50 turned out to be 5.5 nM.
